# Measured values: patent publication US6339042B1, “Herbicidal N-cyclohexadienyl heteroaryloxyacetamides” (American Cyanamid Co., priority 1999, dated 2002)
# Experiments:
# Conditions in all cases: three weeks after treatment
# Amaranthus tuberculatus [1] = assay: Pre-emergence herbicidal evaluation, AMATA; type: in vivo
# Excerpt: (§1) The treated pots are then placed on greenhouse benches, watered and cared for in accordance with conventional greenhouse procedures.
# Galium aparine [2] = assay: Pre-emergence herbicidal evaluation, GALAP; type: in vivo
# Excerpt: as §1
# Alopecurus myosuroides [3] = assay: Pre-emergence herbicidal evaluation, ALOMY; type: in vivo
# Excerpt: as §1
# Apera spica venti [4] = assay: Pre-emergence herbicidal evaluation, APESV; type: in vivo
# Excerpt: as §1
# Echinochloa crus-galli [5] = assay: Pre-emergence herbicidal evaluation, ECHCG; type: in vivo
# Excerpt: as §1
# Setaria viridis [6] = assay: Pre-emergence herbicidal evaluation, SETVI; type: in vivo
# Excerpt: as §1
# Lolium perenne [7] = assay: Pre-emergence herbicidal evaluation, LOLPE; type: in vivo
# Excerpt: as §1
# Triticum aestivum [8] = assay: Pre-emergence herbicidal evaluation, TRZAW; type: in vivo
# Excerpt: as §1
# Hordeum vulgare [9] = assay: Pre-emergence herbicidal evaluation, HORVW; type: in vivo
# Excerpt: as §1
# Zea mays [10] = assay: Pre-emergence herbicidal evaluation, ZEAMX; type: in vivo
# Excerpt: as §1
# Glycine max [11] = assay: Pre-emergence herbicidal evaluation, GLXMA; type: in vivo
# Excerpt: as §1
# Oryza sativum [12] = assay: Pre-emergence herbicidal evaluation, ORYSA; type: in vivo
# Excerpt: as §1
# Amaranthus tuberculatus [13] = assay: Post-emergence herbicidal evaluation, AMATA; type: in vivo
# Galium aparine [14] = assay: Post-emergence herbicidal evaluation, GALAP
# Alopecurus myosuroides [15] = assay: Post-emergence herbicidal evaluation, ALOMY
# Procedure: (§2) The compounds of the invention are tested for pre- and post-emergence herbicidal activity.
# (§3) Each pot is examined three weeks after treatment and phytotoxicity is assessed according to the rating system set forth below.
# (§4) These acetone solutions are diluted with water and the resulting formulations applied at dosage levels equivalent of about 0.4 to 0.1 kg per hectare of test compound per pot. After spraying the plants are placed on greenhouse benches and are cared for in the usual manner, commensurate with conventional greenhouse practices.
# Apera spica venti [16] = assay: Post-emergence herbicidal evaluation, APESV
# Echinochloa crus-galli [17] = assay: Post-emergence herbicidal evaluation, ECHCG
# Procedure: as §2, §3, §4
# Setaria viridis [18] = assay: Post-emergence herbicidal evaluation, SETVI
# Procedure: as §2, §3, §4
# Lolium perenne [19] = assay: Post-emergence herbicidal evaluation, LOLPE
# Procedure: as §3, §4
# Triticum aestivum [20] = assay: Post-emergence herbicidal evaluation, TRZAW
# Procedure: as §3, §4
# Hordeum vulgare [21] = assay: Post-emergence herbicidal evaluation, HORVW
# Zea mays [22] = assay: Post-emergence herbicidal evaluation, ZEAMX
# Procedure: as §3, §4
# Glycine max [23] = assay: Post-emergence herbicidal evaluation, GLXMA
# Oryza sativum [24] = assay: Post-emergence herbicidal evaluation, ORYSA
compound,measurement,setting,value
CC1=CC(N(C(=O)COc2nc3ccccc3o2)C(C)C)=CC(C)(C)C1 [Example 17],phytotoxicity rating AMATA,Amaranthus tuberculatus [1]; 0.100 kg/ha,4 (4 - Injury)
same,phytotoxicity rating AMATA,Amaranthus tuberculatus [1]; 0.200 kg/ha,5 (5 - Definite injury)
same,phytotoxicity rating AMATA,Amaranthus tuberculatus [1]; 0.400 kg/ha,5 (5 - Definite injury)
same,phytotoxicity rating AMATA,Amaranthus tuberculatus [1]; 0.800 kg/ha,9 (9 - Complete kill)
same,phytotoxicity rating GALAP,Galium aparine [2]; 0.100 kg/ha,0 (0 - No effect)
same,phytotoxicity rating GALAP,Galium aparine [2]; 0.200 kg/ha,0 (0 - No effect)
same,phytotoxicity rating GALAP,Galium aparine [2]; 0.400 kg/ha,0 (0 - No effect)
same,phytotoxicity rating GALAP,Galium aparine [2]; 0.800 kg/ha,0 (0 - No effect)
same,phytotoxicity rating ALOMY,Alopecurus myosuroides [3]; 0.100 kg/ha,3 (3 - Moderate effect)
same,phytotoxicity rating ALOMY,Alopecurus myosuroides [3]; 0.200 kg/ha,6 (6 - Herbicidal effect)
same,phytotoxicity rating ALOMY,Alopecurus myosuroides [3]; 0.400 kg/ha,6 (6 - Herbicidal effect)
same,phytotoxicity rating ALOMY,Alopecurus myosuroides [3]; 0.800 kg/ha,9 (9 - Complete kill)
same,phytotoxicity rating APESV,Apera spica venti [4]; 0.100 kg/ha,7 (7 - Good herbicidal effect)
same,phytotoxicity rating APESV,Apera spica venti [4]; 0.200 kg/ha,8 (8 - Approaching complete kill)
same,phytotoxicity rating APESV,Apera spica venti [4]; 0.400 kg/ha,9 (9 - Complete kill)
same,phytotoxicity rating APESV,Apera spica venti [4]; 0.800 kg/ha,9 (9 - Complete kill)
same,phytotoxicity rating ECHCG,Echinochloa crus-galli [5]; 0.100 kg/ha,4 (4 - Injury)
same,phytotoxicity rating ECHCG,Echinochloa crus-galli [5]; 0.200 kg/ha,6 (6 - Herbicidal effect)
same,phytotoxicity rating ECHCG,Echinochloa crus-galli [5]; 0.400 kg/ha,7 (7 - Good herbicidal effect)
same,phytotoxicity rating ECHCG,Echinochloa crus-galli [5]; 0.800 kg/ha,9 (9 - Complete kill)
same,phytotoxicity rating SETVI,Setaria viridis [6]; 0.100 kg/ha,3 (3 - Moderate effect)
same,phytotoxicity rating SETVI,Setaria viridis [6]; 0.200 kg/ha,5 (5 - Definite injury)
same,phytotoxicity rating SETVI,Setaria viridis [6]; 0.400 kg/ha,8 (8 - Approaching complete kill)
same,phytotoxicity rating SETVI,Setaria viridis [6]; 0.800 kg/ha,8 (8 - Approaching complete kill)
same,phytotoxicity rating LOLPE,Lolium perenne [7]; 0.100 kg/ha,5 (5 - Definite injury)
same,phytotoxicity rating LOLPE,Lolium perenne [7]; 0.200 kg/ha,9 (9 - Complete kill)
same,phytotoxicity rating LOLPE,Lolium perenne [7]; 0.400 kg/ha,9 (9 - Complete kill)
same,phytotoxicity rating LOLPE,Lolium perenne [7]; 0.800 kg/ha,9 (9 - Complete kill)
same,phytotoxicity rating TRZAW,Triticum aestivum [8]; 0.100 kg/ha,1 (1 - Trace effect)
same,phytotoxicity rating TRZAW,Triticum aestivum [8]; 0.200 kg/ha,2 (2 - Slight effect)
same,phytotoxicity rating TRZAW,Triticum aestivum [8]; 0.400 kg/ha,2 (2 - Slight effect)
same,phytotoxicity rating TRZAW,Triticum aestivum [8]; 0.800 kg/ha,4 (4 - Injury)
same,phytotoxicity rating HORVW,Hordeum vulgare [9]; 0.100 kg/ha,1 (1 - Trace effect)
same,phytotoxicity rating HORVW,Hordeum vulgare [9]; 0.200 kg/ha,2 (2 - Slight effect)
same,phytotoxicity rating HORVW,Hordeum vulgare [9]; 0.400 kg/ha,2 (2 - Slight effect)
same,phytotoxicity rating HORVW,Hordeum vulgare [9]; 0.800 kg/ha,4 (4 - Injury)
same,phytotoxicity rating ZEAMX,Zea mays [10]; 0.100 kg/ha,0 (0 - No effect)
same,phytotoxicity rating ZEAMX,Zea mays [10]; 0.200 kg/ha,0 (0 - No effect)
same,phytotoxicity rating ZEAMX,Zea mays [10]; 0.400 kg/ha,1 (1 - Trace effect)
same,phytotoxicity rating ZEAMX,Zea mays [10]; 0.800 kg/ha,3 (3 - Moderate effect)
same,phytotoxicity rating GLXMA,Glycine max [11]; 0.100 kg/ha,0 (0 - No effect)
same,phytotoxicity rating GLXMA,Glycine max [11]; 0.200 kg/ha,0 (0 - No effect)
same,phytotoxicity rating GLXMA,Glycine max [11]; 0.400 kg/ha,0 (0 - No effect)
same,phytotoxicity rating GLXMA,Glycine max [11]; 0.800 kg/ha,1 (1 - Trace effect)
same,phytotoxicity rating ORYSA,Oryza sativum [12]; 0.100 kg/ha,2 (2 - Slight effect)
same,phytotoxicity rating ORYSA,Oryza sativum [12]; 0.200 kg/ha,3 (3 - Moderate effect)
same,phytotoxicity rating ORYSA,Oryza sativum [12]; 0.400 kg/ha,4 (4 - Injury)
same,phytotoxicity rating ORYSA,Oryza sativum [12]; 0.800 kg/ha,4 (4 - Injury)
same,phytotoxicity rating AMATA,Amaranthus tuberculatus [13]; 0.100 kg/ha,3 (3 - Moderate effect)
same,phytotoxicity rating AMATA,Amaranthus tuberculatus [13]; 0.200 kg/ha,4 (4 - Injury)
same,phytotoxicity rating AMATA,Amaranthus tuberculatus [13]; 0.400 kg/ha,5 (5 - Definite injury)
same,phytotoxicity rating GALAP,Galium aparine [14]; 0.100 kg/ha,1 (1 - Trace effect)
same,phytotoxicity rating GALAP,Galium aparine [14]; 0.200 kg/ha,3 (3 - Moderate effect)
same,phytotoxicity rating GALAP,Galium aparine [14]; 0.400 kg/ha,4 (4 - Injury)
same,phytotoxicity rating ALOMY,Alopecurus myosuroides [15]; 0.100 kg/ha,3 (3 - Moderate effect)
same,phytotoxicity rating ALOMY,Alopecurus myosuroides [15]; 0.200 kg/ha,6 (6 - Herbicidal effect)
same,phytotoxicity rating ALOMY,Alopecurus myosuroides [15]; 0.400 kg/ha,8 (8 - Approaching complete kill)
same,phytotoxicity rating APESV,Apera spica venti [16]; 0.100 kg/ha,6 (6 - Herbicidal effect)
same,phytotoxicity rating APESV,Apera spica venti [16]; 0.200 kg/ha,8 (8 - Approaching complete kill)
same,phytotoxicity rating APESV,Apera spica venti [16]; 0.400 kg/ha,8 (8 - Approaching complete kill)
same,phytotoxicity rating ECHCG,Echinochloa crus-galli [17]; 0.100 kg/ha,3 (3 - Moderate effect)
same,phytotoxicity rating ECHCG,Echinochloa crus-galli [17]; 0.200 kg/ha,4 (4 - Injury)
same,phytotoxicity rating ECHCG,Echinochloa crus-galli [17]; 0.400 kg/ha,6 (6 - Herbicidal effect)
same,phytotoxicity rating SETVI,Setaria viridis [18]; 0.100 kg/ha,5 (5 - Definite injury)
same,phytotoxicity rating SETVI,Setaria viridis [18]; 0.200 kg/ha,6 (6 - Herbicidal effect)
same,phytotoxicity rating SETVI,Setaria viridis [18]; 0.400 kg/ha,6 (6 - Herbicidal effect)
same,phytotoxicity rating LOLPE,Lolium perenne [19]; 0.100 kg/ha,4 (4 - Injury)
same,phytotoxicity rating LOLPE,Lolium perenne [19]; 0.200 kg/ha,7 (7 - Good herbicidal effect)
same,phytotoxicity rating LOLPE,Lolium perenne [19]; 0.400 kg/ha,8 (8 - Approaching complete kill)
same,phytotoxicity rating TRZAW,Triticum aestivum [20]; 0.100 kg/ha,0 (0 - No effect)
same,phytotoxicity rating TRZAW,Triticum aestivum [20]; 0.200 kg/ha,1 (1 - Trace effect)
same,phytotoxicity rating TRZAW,Triticum aestivum [20]; 0.400 kg/ha,2 (2 - Slight effect)
same,phytotoxicity rating HORVW,Hordeum vulgare [21]; 0.100 kg/ha,0 (0 - No effect)
same,phytotoxicity rating HORVW,Hordeum vulgare [21]; 0.200 kg/ha,0 (0 - No effect)
same,phytotoxicity rating HORVW,Hordeum vulgare [21]; 0.400 kg/ha,0 (0 - No effect)
same,phytotoxicity rating ZEAMX,Zea mays [22]; 0.100 kg/ha,0 (0 - No effect)
same,phytotoxicity rating ZEAMX,Zea mays [22]; 0.200 kg/ha,0 (0 - No effect)
same,phytotoxicity rating ZEAMX,Zea mays [22]; 0.400 kg/ha,1 (1 - Trace effect)
same,phytotoxicity rating GLXMA,Glycine max [23]; 0.100 kg/ha,3 (3 - Moderate effect)
same,phytotoxicity rating GLXMA,Glycine max [23]; 0.200 kg/ha,3 (3 - Moderate effect)
same,phytotoxicity rating GLXMA,Glycine max [23]; 0.400 kg/ha,6 (6 - Herbicidal effect)
same,phytotoxicity rating ORYSA,Oryza sativum [24]; 0.100 kg/ha,0 (0 - No effect)
same,phytotoxicity rating ORYSA,Oryza sativum [24]; 0.200 kg/ha,3 (3 - Moderate effect)
same,phytotoxicity rating ORYSA,Oryza sativum [24]; 0.400 kg/ha,4 (4 - Injury)
